Reference: patent US20070142348A1, “Microbicidal, prophylactic and therapeutic effect of ctc-96 on papilloma viruses” (REDOX PHARMACEUTICAL CORPORATION, AUDUBON […] AND […], priority 2003, published 2007)
“And” between values parts separate entries of the source, which are not always exact repeats. Equal entries are not always repeated.

What was measured:
HPV-11 = assay: Effect of CTC-96 on the infectivity of HPV-11 (virus incubated with CTC-96 prior to infection of foreskin fragments), human xenograft SCID mouse model; format: in vivo, SCID mice; conditions: for Immunocytochemistry: grafts Negative for HPV (number): foreign body/fibrous counted as negative; for Histology: grafts Negative for HPV (number): foreign body reaction/fibrous tissue counted as negative; for Composite Geometric Mean Diameters (cGMD) of the Grafts, Median: 12 weeks; for Composite Geometric Mean Diameters (cGMD) of the Grafts, Mean ± SD: 12 weeks after grafting
Protocol: The effect of CTC-96™ on the infectivity of HPV-11 was evaluated in the human xenograft SCID mouse model. HPV type 11 is, with HPV-6, one of the two viruses responsible for the majority of anogenital warts in humans.
CTC-96™ in saline was incubated with HPV-11 prior to infection of human neonatal foreskin fragments. The fragments were then grafted onto SCID mice. The animals were monitored weekly. They were weighed at the time of grafting, and every other week during the 12 weeks of the experiment. There was no effect of HPV-11 treatment by CTC-96™ on the weight of the mice. The animals were sacrificed by cervical dislocation 12 weeks after graft implantation. Length, width, and height of the graft were measured and recorded. A composite geometric mean diameter (cGMD) of the grafts was calculated for each mouse. The grafts were then removed and analyzed by histology, immunocytochemistry and RT-PCR. Graft evaluation by immunocytochemistry utilized anti-common Papillomavirus antigen^4. Explanted grafts were homogenized and total RNA was extracted. HPV-11 viral cDNA was generated by nested RT-PCR.
Presence of HPV was defined by the presence of two out of three of the following features: acanthosis (an increase in the thickness of the stratum spinosum of the epidermis) koilocytosis (perinuclear vacuolation), or parakeratosis (persistence of the nuclei in the cells of the stratum corneum of the epidermis). As the CTC-96™ concentration increases the percentages of grafts containing HPV decreases, with none positive at the two higher concentrations. […] Two explanations are possible for the high number of foreign body reactions present in the grafts infected with the HPV-11 treated with the two highest concentrations of CTC-96™. The first is that CTC-96™ completely inactivated HPV-11. […] The alternate explanation is that CTC-96™ was toxic to the graft itself. This is unlikely since CTC-96™ has been used in vitro and in vivo in intravaginal preparations without associated toxicities at the concentrations used, and at the lowest concentration of CTC-96™ (0.05%), the number of grafts with a foreign body reaction was not different than that in the control group, thus toxicity would be unlikely to account for the lower number of HPV positive grafts (P=0.0 15; by Fisher exact test). Since CTC-96™ has a clear virucidal action at the lowest concentration (see Table 4), it is reasonable to assume that this virucidal action is present at higher concentrations, independent of the presence of a cytotoxic effect.
Table 4 presents the results and analysis of the HPV RT-PCR, which was performed by extracting total RNA from homogenized, explanted grafts and generating HPV-11 viral cDNA by nested RT-PCR. Using this assay, there is a strong and clear dose-response effect. Only with the highest dose of CTC-96™ is there complete obliteration of viral transcriptional activity.

[1] = system: Bovine Papillomavirus Type 1 (BPV-1); assay: Inhibition of BPV-1 transformation of C127 mouse epithelial cells: exposure of cells pretreated with virus to drug; format: cell-based; conditions: CTC-96 5 μg/ml added 5 hours after virus; counted on day 12; duplicate values
Protocol: (§1) Experiments were performed to determine if CTC-96™ can inactivate the ability of bovine papillomavirus type 1 (BPV-1) to morphologically transform C127 mouse epithelial cells in culture. Cell-free stocks of BPV-1 were treated with CTC-96™ or placebo. In order to detect the transforming ability of BPV-1, sub-confluent cultures of C127 mouse cells are infected with a standardized inoculate of BPV-1. For the positive controls, stock virus was added to the culture medium present on the cells. The presence of morphologically transformed foci was counted after 2 weeks and then again at 3 weeks. Controls included non-infected cells (with or without drug) and untreated BPV-1.
To further evaluate the time course of interaction between CTC-96™ and Papillomavirus the following experiment was performed. Virus was put on C127 mouse epithelial cells in culture at time 0 and incubated for 5 hours. Medium was then removed and replaced with medium plus drug. Cells were then re-fed every 2 days and the experiments counted on day 12.

[2] = system: Bovine Papillomavirus Type 1 (BPV-1); assay: Inhibition of BPV-1 transformation of C127 mouse epithelial cells: pretreatment and post-treatment combined; format: cell-based
Protocol: as §1
To further clarify the dynamics of CTC-96™ Papillomavirus interaction an experiment was performed to combine exposure of virus to the drug prior to cellular infection and exposure of infected cells to the drug. For this purpose BPV-1 was incubated with either CTC-96™ or placebo, diluted and then added to C127 Mouse Epithelial Cells in culture with the addition of CTC-96™ or placebo (Table 11). Addition of 10 μg/ml or 20 μg/ml CTC-96™ to the cell cultures was toxic to the cells. […] Pre-treatment with 50 μg/ml CTC-96™ but not placebo halved the foci number in the normal medium post-treatment control. Thus a small microbicidal effect is probable even at these low concentrations of CTC-96™. The main activity at these concentrations, however, is post-infection.

[3] = HPV-11 treated with CTC-96 0.05%
[4] = HPV-11 treated with CTC-96 0.2%
[5] = concentration not printed in the table row (0.2% group)
[6] = pre-treatment 50 μg/ml CTC-96, post-treatment "μg/ml CTC-96" (figure not given)
[7] = pre-treatment 50 μg/ml CTC-96, post-treatment normal medium
[8] = pre-treatment 50 μg/ml CTC-96, post-treatment placebo
[9] = pre-treatment Placebo, post-treatment 5 μg/ml CTC-96

CC(/C=C(/C)[O-])=NCCN=C(C)/C=C(/C)[O-].Cc1ncc[nH]1.Cc1ncc[nH]1.[Br-].[Co+3] [CTC-96]
Effect on the weight of the mice (HPV-11; 12 weeks of the experiment): no effect
Histology: grafts Positive for HPV (number) (HPV-11; CTC-96 0.05%): 4
Histology: grafts Positive for HPV (percent) (HPV-11; CTC-96 0.05%): (26.7%)
Immunocytochemistry: grafts Positive for HPV (number) (HPV-11; CTC-96 0.05%): 2
Immunocytochemistry: grafts Positive for HPV (percent) (HPV-11; CTC-96 0.05%): (12.5%)
RT-PCR: grafts HPV-11 Negative (number) (HPV-11; CTC-96 0.05%): 7
RT-PCR: grafts HPV-11 Positive (number) (HPV-11; CTC-96 0.05%): 9
RT-PCR: grafts HPV-11 Positive (percent) (HPV-11; CTC-96 0.05%): (56.2%)
Immunocytochemistry: grafts Negative for HPV (number) (HPV-11; CTC-96 0.05%, anti-common Papillomavirus antigen): 14
Histology: grafts Negative for HPV (number) (HPV-11; CTC-96 0.05%): 11
Histology: grafts Positive for HPV (number) (HPV-11; CTC-96 0.2%): 0
Histology: grafts Positive for HPV (percent) (HPV-11; CTC-96 0.2%): (0%)
Immunocytochemistry: grafts Positive for HPV (number) (HPV-11; CTC-96 0.2%): 0
Immunocytochemistry: grafts Positive for HPV (percent) (HPV-11; CTC-96 0.2%): (0%)
Histology: grafts Negative for HPV (number) (HPV-11; CTC-96 0.2%): 12
Immunocytochemistry: grafts Negative for HPV (number) (HPV-11; CTC-96 0.2%): 12
Histology: grafts Positive for HPV (number) (HPV-11; CTC-96 1%): 0
Histology: grafts Positive for HPV (percent) (HPV-11; CTC-96 1%): (0%)
Immunocytochemistry: grafts Positive for HPV (number) (HPV-11; CTC-96 1%): 0
Immunocytochemistry: grafts Positive for HPV (percent) (HPV-11; CTC-96 1%): (0%)
RT-PCR: grafts HPV-11 Negative (number) (HPV-11; CTC-96 1%): 15
RT-PCR: grafts HPV-11 Positive (number) (HPV-11; CTC-96 1%): 0
RT-PCR: grafts HPV-11 Positive (percent) (HPV-11; CTC-96 1%): (0%)
Histology: grafts Negative for HPV (number) (HPV-11; CTC-96 1%): 16
Immunocytochemistry: grafts Negative for HPV (number) (HPV-11; CTC-96 1%): 17
Composite Geometric Mean Diameters (cGMD) of the Grafts, Median (HPV-11; [3]): 2.01 mm
Composite Geometric Mean Diameters (cGMD) of the Grafts, Mean ± SD (HPV-11; [3]): 2.02 ± 0.179 mm
Composite Geometric Mean Diameters (cGMD) of the Grafts, Median (HPV-11; [4]): 1.88 mm
Composite Geometric Mean Diameters (cGMD) of the Grafts, Mean ± SD (HPV-11; [4]): 1.86 ± 0.196 mm
Composite Geometric Mean Diameters (cGMD) of the Grafts, Median (HPV-11; HPV-11 treated with CTC-96 1%): 1.94 mm
Composite Geometric Mean Diameters (cGMD) of the Grafts, Mean ± SD (HPV-11; HPV-11 treated with CTC-96 1%): 1.95 ± 0.139 mm
RT-PCR: grafts HPV-11 Negative (number) (HPV-11; [5]): 5
RT-PCR: grafts HPV-11 Positive (percent) (HPV-11; [5]): (28.6%)
Virucidal effect on HPV-11 (HPV-11; highest concentration of CTC-96 (1%)): completely virucidal
Effect on the animals' mortality or weight gain (HPV-11; mouse, in vivo): no effect
Number of Transformed Foci, Exp. 1 [1]: 3 and 2
Number of Transformed Foci, Exp. 2 [1]: 3
Focus formation ([2]; addition of 5 μg/ml CTC-96 to the cell cultures): effectively suppressed all focus formation
Toxicity to C127 cell cultures ([2]; addition of 10 μg/ml or 20 μg/ml CTC-96 to the cell cultures): toxic
Number of Transformed Foci, Experiment 3-1 [2, 6]: 0
Number of Transformed Foci, Experiment 3-2 [2, 6]: 0
Number of Transformed Foci, Experiment 3-1 [2, 7]: 71 and 46
Number of Transformed Foci, Experiment 3-2 [2, 7]: 46 and 41
Number of Transformed Foci, Experiment 3-1 [2, 8]: 65 and 61
Number of Transformed Foci, Experiment 3-2 [2, 8]: 39 and 62
Number of Transformed Foci, Experiment 3-1 [2, 9]: 0
Number of Transformed Foci, Experiment 3-2 [2, 9]: 0
Inhibition of the virus by pretreatment of the virus (microbicidal effect) ([2]; pretreatment of BPV-1 with 50 μg/ml CTC-96): 50-60%
